System: Streptomyces and other bacteria
Assay: Toxicity of frenolicins to bacteria (comparative statement, no method described)
Type: cell-based
Conditions: relative ranking among the frenolicins; qualitative only

Molecule | toxic to Streptomyces and other bacteria
CCC[C@H]1O[C@H](CC(=O)O)CC2=C1C(=O)c1c(O)cccc1C2=O [deoxyfrenolicin] | less toxic
frenolicin B [reference compound] | most toxic
frenolicin epoxide | even less so
